Data taken from patent US7507716B2, “Method for treating pain with prolactin antagonists” (Board of Regents, The University of Texas System, priority 2005, dated 2009).

Tests used:
[1] = system: PRL mRNA; assay: Real-time RT-PCR of PRL mRNA in trigeminal ganglia; assay type: in vivo, rat
Excerpt: The S.A.M. and GeneSpring 5.1 analyses identified 18 genes whose expression increased and 3 genes whose expression decreased. […] The expression profile of genes selected using the microarray screen was confirmed by real-time RT-PCR. Validated primers were used for each gene and expression was normalized to the housekeeping gene 18S. Data are presented as mean±SEM (n=5/group, **=p<0.01 and ***=p<0.001 versus respective vehicle control; two-tailed unpaired T test). […] For this reason, PRL was selected for further study as a candidate therapeutic target for female-biased pain disorders.
Reactions were performed using primers specific for PRL gene and the internal control (18S). Data were normalized to the relative amount of OVX (vehicle) PRL mRNA/18S. Data are presented as mean±SEM (n=5/group, **=p<0.01 and ***=p<0.001 vs. PRL mRNA of the OVX/Vehicle group; one-way ANOVA with Bonferroni's post hoc test). […] Moreover, the relative PRL mRNA expression in the TG of intact female rats during proestrous was 78-fold greater (p<0.001). The TG samples collected from these groups were also subjected to Western blot analysis to determine the relative expression of PRL protein. […] The results obtained from these experiments were quantified as described in the METHODS section. […] The specificity of anti-PRL antibodies was evaluated by a use of the blocking peptide corresponding to the epitope of PRL. Pre-absorption of anti-PRL antibodies with the blocking peptide nearly eliminated the PRL-specific band (FIGS. 2B, 2C).
RNA isolation: Harvested TG tissue from OVX (treated with vehicle or estradiol) or intact proestrous female rats were immediately frozen in liquid nitrogen and ground in a pre-chilled mortar. The ground tissue was used to isolate total RNA by the guanidinium thiocyanate method as described previously (Chomczynski and Sacchi, 1987). […] Additional RNA sample aliquots were used as template for the quantitative real time RT-PCR experiments.
Quantitative Real Time RT-PCR (qRT-PCR): Total RNA (100 ng) was used as template in a one-step RT-PCR protocol. […]

[2] = system: acutely dissociated TG neurons; assay: Calcium imaging, PRL effect on capsaicin-evoked Ca2+ influx; assay type: cell-based, rat
Excerpt: The binding of PRL to the PRL-R activates a variety of intracellular signaling pathways in non-neuronal cells (Bole-Feysot et al. 1998), some of which are known to be involved in the sensitization of TRPV1 in nociceptors (Cesare and McNaughton, 1996). To evaluate whether PRL sensitizes capsaicin activation of TRPV1, changes in calcium (Ca^2+) influx were quantified in acutely dissociated TG neurons. FIG. 4A depicts the results of Ca^2+ imaging experiments performed in acutely dissociated TG neurons. Data are presented as mean % of vehicle±SEM (n=30/group, ***=p<0.001; two-way ANOVA). FIG. 4B depicts representative traces of Ca^2+ imaging experiments performed in neurons from proestrous rats. Neurons were treated with 40 nM PRL or vehicle for 10 min followed by a 40 sec capsaicin (30 nM) application. […] Data are presented as mean F340/F380±SEM (n=8/group; error bars are SEM). […] PRL appears to increase the magnitude of capsaicin-evoked Ca^2+ influx in TG neurons by about 71% compared to that observed in TG neurons not exposed to PRL, whereas PRL had no effect on capsaicin-evoked calcium influx in neurons from OVX control rats (FIG. 4A). […]
Calcium Imaging: TG cells cultured on coverslips were loaded with the cell-permeable calcium sensitive dye FURA 2-AM (1 ug/ml) (Molecular Probes, Eugene, Oreg.) for 30 min at 37° C. in Standard External Solution (SES) of the following composition in mM: 140 NaCl, 5 KCl, 2 CaCl2, 1 MgCl2, 10 glucose and 10 HEPES, pH 7.4. […] Fluorescence images were collected in 5 sec intervals throughout the experiment, analyzed, and the F340/F380 ratio calculated by the Methafluor Software (MethaMorph, Web Universal Imaging Corporation, Downingtown, Pa.). […] The magnitude of calcium influx was determined by subtracting the averaged baseline 30 sec prior to the capsaicin stimulus from the peak achieved by the capsaicin stimulation for each cell (ratiometric method, ΔF340/F380).

| Molecule | PRL mRNA estradiol responsiveness in TG neurons ([1]; OVX rats undergoing estradiol replacement, summary statement) [fold] | increase in PRL mRNA expression in TG vs OVX control rats ([1]; OVX rats with estradiol replacement 80 μg/kg/day×10 days, normalized to 18S, FIG. 2A) | increase in PRL mRNA expression in response to estradiol ([1]; TG of OVX rats, 80 μg/kg/day for 10 days vs vehicle, normalized to 18S, FIG. 1) [fold] | increase in magnitude of capsaicin-evoked Ca2+ influx ([2]; PRL 40 nM 10 min, capsaicin 30 nM 40 sec, neurons from intact female rats) | effect on capsaicin-evoked calcium influx ([2]; PRL 40 nM, neurons from OVX control rats) | Ca2+ influx evoked by PRL on its own ([2]; PRL 40 nM, neurons from proestrous rats) |
| --- | --- | --- | --- | --- | --- | --- |
| C[C@]12CC[C@@H]3c4ccc(O)cc4CC[C@H]3[C@@H]1CC[C@@H]2O [estradiol, 17-β-estradiol] | > 40 | approximately 50 fold | 48 | – | – | – |
| PRL: Ovine PRL [oPRL-21, BIO] provided by NHPP; prolactin polypeptide hormone (protein, UniProt P01240 31-229, looked up) Prolactin: TPVCPNGPGNCQVSLRDLFDRAVMVSHYIHNLSSEMFNEFDKRYAQGKGFITMALNSCHTSSLPTPEDKEQAQQTHHEVLMSLILGLLRSWNDPLYHLVTEVRGMKGVPDAILSRAIEIEEENKRLLEGMEMIFGQVIPGAKETEPYPVWSGLPSLQTKDEDARHSAFYNLLHCLRRDSSKIDTYLKLLNCRIIYNNNC | – | – | – | about 71% | had no effect | did not evoke Ca^2+ influx on its own |
